Experiment: Inhibitory activity against class A TEM-1 beta-lactamase

In the case of `O=C(O)C1=C(c2cccs2)CS(=O)(=O)[C@@H]2/C(=C\c3ccccn3)C(=O)N12` [Sodium; (R)-5,5,8-trioxo-7-[1-pyridin-2-yl-meth-(Z)-ylidene]-3-thiophen-2-yl-5lambda*6*-thia-1-aza-bicyclo[4.2.0]oct-2-ene-2-carboxylate], the IC50 is reported as 3.54 µM.

With `O=C(O)C1=C(c2ccccc2)CS(=O)(=O)[C@@H]2/C(=C\c3ccccn3)C(=O)N12` [Sodium; (R)-5,5,8-trioxo-3-phenyl-7-[1-pyridin-2-yl-meth-(Z)-ylidene]-5lambda*6*-thia-1-aza-bicyclo[4.2.0]oct-2-ene-2-carboxylate] the IC50 was 9.14 µM.

`CSC1=C(C(=O)O)N2C(=O)/C(=C/c3ccccn3)[C@H]2S(=O)(=O)C1` [Sodium; (R)-3-methylsulfanyl-5,5,8-trioxo-7-[1-pyridin-2-yl-meth-(Z)-ylidene]-5lambda*6*-thia-1-aza-bicyclo[4.2.0]oct-2-ene-2-carboxylate] gave an IC50 of 1.06 µM.

With `O=C(O)C1=C(Cl)CS(=O)(=O)[C@@H]2/C(=C\c3ccccn3)C(=O)N12` [Sodium; (R)-3-chloro-5,5,8-trioxo-7-[1-pyridin-2-yl-meth-(Z)-ylidene]-5lambda*6*-thia-1-aza-bicyclo[4.2.0]oct-2-ene-2-carboxylate] the IC50 was 1.82 µM.

Work on `O=C(O)C1=C(I)CS(=O)(=O)[C@@H]2/C(=C\c3ccccn3)C(=O)N12` [Sodium; (R)-3-iodo-5,5,8-trioxo-7-[1-pyridin-2-yl-meth-(Z)-ylidene]-5lambda*6*-thia-1-aza-bicyclo[4.2.0]oct-2-ene-2-carboxylate] yielded an IC50 of 1.28 µM.

Work on `N=C(N)NCCNC(=O)C=CC1=C(C(=O)O)N2C(=O)C(=Cc3ccccn3)[C@H]2S(=O)(=O)C1` [Sodium; (R)-3-[(E)-2-(2-guanidino-ethylcarbamoyl)-vinyl]-5,5,8-trioxo-7-[1-pyridin-2-yl-meth-(Z)-ylidene]-5lambda*6*-thia-1-aza-bicyclo[4.2.0]oct-2-ene-2-carboxylate] yielded an IC50 of 0.0083 µM.

Work on `CN1CCN(C(=O)/C=C/C2=C(C(=O)O)N3C(=O)/C(=C/c4ccccn4)[C@H]3S(=O)(=O)C2)CC1` [Sodium; (R)-3-[(E)-3-(4-methyl-piperazin-1-yl)-3-oxo-propenyl]-5,5,8-trioxo-7-[1-pyridin-2-yl-meth-(Z)-ylidene]-5lambda*6*-thia-1-aza-bicyclo[4.2.0]oct-2-ene-2-carboxylate] yielded an IC50 of 0.053 µM.

With `O=C(O)C1=C(Sc2ccccc2)CS(=O)(=O)[C@@H]2/C(=C\c3ccccn3)C(=O)N12` [Sodium; (R)-5,5,8-trioxo-3-phenylsulfanyl-7-[1-pyridin-2-yl-meth-(Z)-ylidene]-5lambda*6*-thia-1-aza-bicyclo[4.2.0]oct-2-ene-2-carboxylate] the IC50 was 0.012 µM.

With `NC(=O)/C=C/C1=C(C(=O)O)N2C(=O)/C(=C/c3ccccn3)[C@H]2S(=O)(=O)C1` [Sodium; (R)-3-((E)-2-carbamoyl-vinyl)-5,5,8-trioxo-7-[1-pyridin-2-yl-meth-(Z)-ylidene]-5lambda*6*-thia-1-aza-bicyclo[4.2.0]oct-2-ene-2-carboxylate] the IC50 was 0.262 µM.

Work on `O=C(/C=C/C1=C(C(=O)O)N2C(=O)/C(=C/c3ccccn3)[C@H]2S(=O)(=O)C1)NCCO` [Sodium; (R)-3-[(E)-2-(2-hydroxy-ethylcarbamoyl)-vinyl]-5,5,8-trioxo-7-[1-pyridin-2-yl-meth-(Z)-ylidene]-5lambda*6*-thia-1-aza-bicyclo[4.2.0]oct-2-ene-2-carboxylate] yielded an IC50 of 0.07 µM.

`O=C(O)C1=C(Br)CS(=O)(=O)[C@@H]2/C(=C\c3ccccn3)C(=O)N12` [Sodium; (R)-3-bromo-5,5,8-trioxo-7-[1-pyridin-2-yl-meth-(Z)-ylidene]-5lambda*6*-thia-1-aza-bicyclo[4.2.0]oct-2-ene-2-carboxylate] showed an IC50 of 0.791 µM.

Compound `O=C(/C=C/C1=C(C(=O)O)N2C(=O)/C(=C/c3ccccn3)[C@H]2S(=O)(=O)C1)Nc1c(F)c(F)c(F)c(F)c1F` [Sodium; (R)-5,5,8-trioxo-3-((E)-2-pentafluorophenylcarbamoyl-vinyl)-7-[1-pyridin-2-yl-meth-(Z)-ylidene]-5lambda*6*-thia-1-aza-bicyclo[4.2.0]oct-2-ene-2-carboxylate] has an IC50 of 4.28 µM.

`O=C(/C=C/C1=C(C(=O)O)N2C(=O)/C(=C/c3ccccn3)[C@H]2S(=O)(=O)C1)NCc1ccccc1` [Sodium; (R)-3-((E)-2-benzylcarbamoyl-vinyl)-5,5,8-trioxo-7-[1-pyridin-2-yl-meth-(Z)-ylidene]-5lambda*6*-thia-1-aza-bicyclo[4.2.0]oct-2-ene-2-carboxylate] gave an IC50 of 1.4 µM.

`O=C(/C=C/C1=C(C(=O)O)N2C(=O)/C(=C/c3ccccn3)[C@H]2S(=O)(=O)C1)NO` [Sodium; (R)-3-((E)-2-hydroxycarbamoyl-vinyl)-5,5,8-trioxo-7-[1-pyridin-2-yl-meth-(Z)-ylidene]-5lambda*6*-thia-1-aza-bicyclo[4.2.0]oct-2-ene-2-carboxylate] gave an IC50 of 7.69 µM.

Compound `O=C(O)C1=C(C(=O)O)N2C(=O)/C(=C/c3ccccn3)[C@H]2S(=O)(=O)C1` [Disodium; (R)-3-carboxy-5,5,8-trioxo-7-[1-pyridin-2-yl-meth-(Z)-ylidene]-5lambda*6*-thia-1-aza-bicyclo[4.2.0]oct-2-ene-2-carboxylate] has an IC50 of 10.4 µM.

`NCCCNC(=O)/C=C/C1=C(C(=O)O)N2C(=O)/C(=C/c3ccccn3)[C@H]2S(=O)(=O)C1` [Sodium; (R)-3-[(E)-2-(3-amino-propylcarbamoyl)-vinyl]-5,5,8-trioxo-7-[1-pyridin-2-yl-meth-(Z)-ylidene]-5lambda*6*-thia-1-aza-bicyclo[4.2.0]oct-2-ene-2-carboxylate] gave an IC50 of 1.59 µM.

In the case of `O=C(O)C1=CCS(=O)(=O)[C@@H]2/C(=C\c3ccccn3)C(=O)N12` [Sodium; (R)-5,5,8-trioxo-7-[1-pyridin-2-yl-meth-(Z)-ylidene]-5lambda*6*-thia-1-aza-bicyclo[4.2.0]oct-2-ene-2-carboxylate], the IC50 is reported as 18.5 µM.

With `CS(=O)(=O)C1=C(C(=O)O)N2C(=O)/C(=C/c3ccccn3)[C@H]2S(=O)(=O)C1` [Sodium; (R)-3-methanesulfonyl-5,5,8-trioxo-7-[1-pyridin-2-yl-meth-(Z)-ylidene]-5lambda*6*-thia-1-aza-bicyclo[4.2.0]oct-2-ene-2-carboxylate] the IC50 was 0.0076 µM.

In the case of `O=C(/C=C/C1=C(C(=O)O)N2C(=O)/C(=C/c3ccccn3)[C@H]2S(=O)(=O)C1)Nc1ccc(O)cc1` [Sodium; (R)-3-[(E)-2-(4-hydroxy-phenylcarbamoyl)-vinyl]-5,5,8-trioxo-7-[1-pyridin-2-yl-meth-(Z)-ylidene]-5lambda*6*-thia-1-aza-bicyclo[4.2.0]oct-2-ene-2-carboxylate], the IC50 is reported as 0.11 µM.

In the case of `O=C(O)C1=C(S(=O)(=O)c2ccccc2)CS(=O)(=O)[C@@H]2/C(=C\c3ccccn3)C(=O)N12` [Sodium; (R)-3-benzenesulfonyl-5,5,8-trioxo-7-[1-pyridin-2-yl-meth-(Z)-ylidene]-5lambda*6*-thia-1-aza-bicyclo[4.2.0]oct-2-ene-2-carboxylate], the IC50 is reported as 0.0094 µM.

For `O=C(/C=C/C1=C(C(=O)O)N2C(=O)/C(=C/c3ccccn3)[C@H]2S(=O)(=O)C1)NCC(F)(F)F` [Sodium; (R)-5,5,8-trioxo-7-[1-pyridin-2-yl-meth-(Z)-ylidene]-3-[(E)-2-(2,2,2-trifluoro-ethylcarbamoyl)-vinyl]-5lambda*6*-thia-1-aza-bicyclo[4.2.0]oct-2-ene-2-carboxylate], the IC50 was 0.078 µM.

For `O=C(/C=C/C1=C(C(=O)O)N2C(=O)/C(=C/c3ccccn3)[C@H]2S(=O)(=O)C1)NC1CC1` [Sodium; (R)-3-((E)-2-cyclopropylcarbamoyl-vinyl)-5,5,8-trioxo-7-[1-pyridin-2-yl-meth-(Z)-ylidene]-5lambda*6*-thia-1-aza-bicyclo[4.2.0]oct-2-ene-2-carboxylate], the IC50 was 0.24 µM.

Work on `NNC(=O)/C=C/C1=C(C(=O)O)N2C(=O)/C(=C/c3ccccn3)[C@H]2S(=O)(=O)C1` [Sodium; (R)-3-((E)-2-hydrazinocarbonyl-vinyl)-5,5,8-trioxo-7-[1-pyridin-2-yl-meth-(Z)-ylidene]-5lambda*6*-thia-1-aza-bicyclo[4.2.0]oct-2-ene-2-carboxylate] yielded an IC50 of 0.39 µM.

Compound `O=C(O)C1=C(F)CS(=O)(=O)[C@@H]2/C(=C\c3ccccn3)C(=O)N12` [Sodium; (R)-3-fluoro-5,5,8-trioxo-7-[1-pyridin-2-yl-meth-(Z)-ylidene]-5lambda*6*-thia-1-aza-bicyclo[4.2.0]oct-2-ene-2-carboxylate] has an IC50 of 1.84 µM.
